Reference: ChEMBL document CHEMBL3885881, “DrugMatrix”

Species on record: Rattus norvegicus
Assay type: toxicity, organism-based, Sprague-Dawley
Details: in vivo, po, 24 h, route oral GAVAGE, time 1 day, vehicle .5 % CMC; for ABSOLUTE EOSINOPHIL / ABSOLUTE LYMPHOCYTE / ABSOLUTE MONOCYTE / BASOPHIL / EOSINOPHIL / ERYTHROCYTE COUNT / HEMATOCRIT / HEMOGLOBIN / LEUKOCYTE COUNT / LYMPHOCYTE / MEAN CORPUSCULAR HEMOGLOBIN / MEAN CORPUSCULAR HEMOGLOBIN CONCENTRATION / MEAN CORPUSCULAR VOLUME / MONOCYTE / NEUTROPHIL / PLATELET COUNT / ABSOLUTE BASOPHIL: tissue Blood; for ALANINE AMINOTRANSFERASE / ALBUMIN / ALKALINE PHOSPHATASE / ASPARTATE AMINOTRANSFERASE / BLOOD UREA NITROGEN / CARBON DIOXIDE / CHLORIDE / CHOLESTEROL / CREATINE PHOSPHOKINASE / CREATININE / GLUCOSE / LACTATE DEHYDROGENASE / LIPASE / PHOSPHORUS / POTASSIUM / SODIUM / TOTAL BILIRUBIN / TOTAL PROTEIN / URIC ACID: tissue Plasma
Description: DrugMatrix - Regimen: Single

CN(C)CCN(Cc1cccs1)c1ccccn1
ABSOLUTE EOSINOPHIL (0 mg/kg, dose level Control): 47.5 cells/µL
ABSOLUTE LYMPHOCYTE (0 mg/kg, dose level Control): 8340 cells/µL
ABSOLUTE MONOCYTE (0 mg/kg, dose level Control): 260 cells/µL
BASOPHIL (0 mg/kg, dose level Control): 0.33%
EOSINOPHIL (0 mg/kg, dose level Control): 0.45%
ERYTHROCYTE COUNT (0 mg/kg, dose level Control): 6.31 x10E6/uL
HEMATOCRIT (0 mg/kg, dose level Control): 42.88%
HEMOGLOBIN (0 mg/kg, dose level Control): 13 G/DL
LEUKOCYTE COUNT (0 mg/kg, dose level Control): 10.38 x10E3/uL
LYMPHOCYTE (0 mg/kg, dose level Control): 80.53%
MEAN CORPUSCULAR HEMOGLOBIN (0 mg/kg, dose level Control): 20.6 pg
MEAN CORPUSCULAR HEMOGLOBIN CONCENTRATION (0 mg/kg, dose level Control): 30.3 G/DL
MEAN CORPUSCULAR VOLUME (0 mg/kg, dose level Control): 67.9 fL
MONOCYTE (0 mg/kg, dose level Control): 2.4%
NEUTROPHIL (0 mg/kg, dose level Control): 15.08%
PLATELET COUNT (0 mg/kg, dose level Control): 1192.5 x10E3/uL
ALANINE AMINOTRANSFERASE (0 mg/kg, dose level Control): 47 u/L
ALBUMIN (0 mg/kg, dose level Control): 3.55 G/DL
ALKALINE PHOSPHATASE (0 mg/kg, dose level Control): 460.75 u/L
ASPARTATE AMINOTRANSFERASE (0 mg/kg, dose level Control): 71.75 u/L
BLOOD UREA NITROGEN (0 mg/kg, dose level Control): 13.75 mg/dL
CARBON DIOXIDE (0 mg/kg, dose level Control): 36.75 mmol/L
CHLORIDE (0 mg/kg, dose level Control): 107.25 MEQ/L
CHOLESTEROL (0 mg/kg, dose level Control): 85.25 mg/dL
CREATINE PHOSPHOKINASE (0 mg/kg, dose level Control): 373 u/L
CREATININE (0 mg/kg, dose level Control): 0.67 mg/dL
GLUCOSE (0 mg/kg, dose level Control): 173.25 mg/dL
LACTATE DEHYDROGENASE (0 mg/kg, dose level Control): 241.25 u/L
LIPASE (0 mg/kg, dose level Control): 39.25 u/L
PHOSPHORUS (0 mg/kg, dose level Control): 13.5 mg/dL
POTASSIUM (0 mg/kg, dose level Control): 6.9 MEQ/L
SODIUM (0 mg/kg, dose level Control): 153 MEQ/L
TOTAL BILIRUBIN (0 mg/kg, dose level Control): 0.3 mg/dL
TOTAL PROTEIN (0 mg/kg, dose level Control): 6.05 G/DL
URIC ACID (0 mg/kg, dose level Control): 1.07 mg/dL
ABSOLUTE BASOPHIL (10 mg/kg, dose level Low): 50 cells/µL
ABSOLUTE EOSINOPHIL (10 mg/kg, dose level Low): 57.5 cells/µL
ABSOLUTE LYMPHOCYTE (10 mg/kg, dose level Low): 6900 cells/µL
ABSOLUTE MONOCYTE (10 mg/kg, dose level Low): 160 cells/µL
BASOPHIL (10 mg/kg, dose level Low): 0.62%
EOSINOPHIL (10 mg/kg, dose level Low): 0.68%
ERYTHROCYTE COUNT (10 mg/kg, dose level Low): 6.69 x10E6/uL
HEMATOCRIT (10 mg/kg, dose level Low): 45.23%
HEMOGLOBIN (10 mg/kg, dose level Low): 13.75 G/DL
LEUKOCYTE COUNT (10 mg/kg, dose level Low): 8.71 x10E3/uL
LYMPHOCYTE (10 mg/kg, dose level Low): 79.03%
MEAN CORPUSCULAR HEMOGLOBIN (10 mg/kg, dose level Low): 20.57 pg
MEAN CORPUSCULAR HEMOGLOBIN CONCENTRATION (10 mg/kg, dose level Low): 30.38 G/DL
MEAN CORPUSCULAR VOLUME (10 mg/kg, dose level Low): 67.67 fL
MONOCYTE (10 mg/kg, dose level Low): 1.82%
NEUTROPHIL (10 mg/kg, dose level Low): 16.77%
PLATELET COUNT (10 mg/kg, dose level Low): 1228.25 x10E3/uL
ALANINE AMINOTRANSFERASE (10 mg/kg, dose level Low): 48.75 u/L
ALBUMIN (10 mg/kg, dose level Low): 3.7 G/DL
ALKALINE PHOSPHATASE (10 mg/kg, dose level Low): 472.25 u/L
ASPARTATE AMINOTRANSFERASE (10 mg/kg, dose level Low): 65.25 u/L
BLOOD UREA NITROGEN (10 mg/kg, dose level Low): 13 mg/dL
CARBON DIOXIDE (10 mg/kg, dose level Low): 38.5 mmol/L
CHLORIDE (10 mg/kg, dose level Low): 107.25 MEQ/L
CHOLESTEROL (10 mg/kg, dose level Low): 86.75 mg/dL
CREATINE PHOSPHOKINASE (10 mg/kg, dose level Low): 250.75 u/L
CREATININE (10 mg/kg, dose level Low): 0.67 mg/dL
GLUCOSE (10 mg/kg, dose level Low): 167 mg/dL
LACTATE DEHYDROGENASE (10 mg/kg, dose level Low): 129.25 u/L
LIPASE (10 mg/kg, dose level Low): 38.5 u/L
PHOSPHORUS (10 mg/kg, dose level Low): 12.45 mg/dL
POTASSIUM (10 mg/kg, dose level Low): 6.83 MEQ/L
SODIUM (10 mg/kg, dose level Low): 153.75 MEQ/L
TOTAL BILIRUBIN (10 mg/kg, dose level Low): 0.3 mg/dL
TOTAL PROTEIN (10 mg/kg, dose level Low): 6.32 G/DL
URIC ACID (10 mg/kg, dose level Low): 0.98 mg/dL
ABSOLUTE BASOPHIL (100 mg/kg, dose level High): 130 cells/µL
ABSOLUTE EOSINOPHIL (100 mg/kg, dose level High): 55 cells/µL
ABSOLUTE LYMPHOCYTE (100 mg/kg, dose level High): 9590 cells/µL
ABSOLUTE MONOCYTE (100 mg/kg, dose level High): 430 cells/µL
BASOPHIL (100 mg/kg, dose level High): 0.95%
EOSINOPHIL (100 mg/kg, dose level High): 0.5%
ERYTHROCYTE COUNT (100 mg/kg, dose level High): 6.9 x10E6/uL
HEMATOCRIT (100 mg/kg, dose level High): 46.1%
HEMOGLOBIN (100 mg/kg, dose level High): 14.12 G/DL
LEUKOCYTE COUNT (100 mg/kg, dose level High): 11.89 x10E3/uL
LYMPHOCYTE (100 mg/kg, dose level High): 80.6%
MEAN CORPUSCULAR HEMOGLOBIN (100 mg/kg, dose level High): 20.48 pg
MEAN CORPUSCULAR HEMOGLOBIN CONCENTRATION (100 mg/kg, dose level High): 30.62 G/DL
MEAN CORPUSCULAR VOLUME (100 mg/kg, dose level High): 66.9 fL
MONOCYTE (100 mg/kg, dose level High): 3.62%
NEUTROPHIL (100 mg/kg, dose level High): 12.9%
PLATELET COUNT (100 mg/kg, dose level High): 1177.75 x10E3/uL
ALANINE AMINOTRANSFERASE (100 mg/kg, dose level High): 102.25 u/L
ALBUMIN (100 mg/kg, dose level High): 3.6 G/DL
ALKALINE PHOSPHATASE (100 mg/kg, dose level High): 460.75 u/L
ASPARTATE AMINOTRANSFERASE (100 mg/kg, dose level High): 150.5 u/L
BLOOD UREA NITROGEN (100 mg/kg, dose level High): 13.5 mg/dL
CARBON DIOXIDE (100 mg/kg, dose level High): 37.75 mmol/L
CHLORIDE (100 mg/kg, dose level High): 108 MEQ/L
CHOLESTEROL (100 mg/kg, dose level High): 61.5 mg/dL
CREATINE PHOSPHOKINASE (100 mg/kg, dose level High): 211.25 u/L
CREATININE (100 mg/kg, dose level High): 0.67 mg/dL
GLUCOSE (100 mg/kg, dose level High): 169.5 mg/dL
LACTATE DEHYDROGENASE (100 mg/kg, dose level High): 94.25 u/L
LIPASE (100 mg/kg, dose level High): 24.75 u/L
PHOSPHORUS (100 mg/kg, dose level High): 13.18 mg/dL
POTASSIUM (100 mg/kg, dose level High): 7.25 MEQ/L
SODIUM (100 mg/kg, dose level High): 154.25 MEQ/L
TOTAL BILIRUBIN (100 mg/kg, dose level High): 0.3 mg/dL
TOTAL PROTEIN (100 mg/kg, dose level High): 6.08 G/DL
URIC ACID (100 mg/kg, dose level High): 1.07 mg/dL
